Experiment [1] has as its target 5'-AMP-activated protein kinase catalytic subunit alpha-1 (Homo sapiens) (UniProt Q13131). Briefly: Binding affinity to wild-type human partial length AMPK alpha1 (M1 to E306 residues) expressed in bacterial expression system assessed as residual binding level at 1 uM by Kinomescan method relative to control.
Experiment [2] has as its target Bone morphogenetic protein receptor type-1B (Homo sapiens) (UniProt O00238). Briefly: Binding affinity to wild-type human partial length BMPR1B (D178 to L502 residues) expressed in mammalian expression system assessed as residual binding level at 1 uM by Kinomescan method relative to control.
Experiment [3] concerns the target Cyclin-dependent kinase 9 (Homo sapiens) (UniProt P50750). Briefly: Binding affinity to wild-type human full length CDK9 (M1 to F372 residues) expressed in bacterial expression system assessed as residual binding level at 1 uM by Kinomescan method relative to control.
Experiment [4] addresses Casein kinase II subunit alpha' (Homo sapiens) (UniProt P19784). Briefly: Binding affinity to wild-type human full length CSNK2A2 (M1 to R350 residues) expressed in mammalian expression system assessed as residual binding level at 1 uM by Kinomescan method relative to control.
Experiment [5] concerns the target Megakaryocyte-associated tyrosine-protein kinase (Homo sapiens) (UniProt P42679). Briefly: Binding affinity to wild-type human full length CTK (M43 to P508 residues) expressed in mammalian expression system assessed as residual binding level at 1 uM by Kinomescan method relative to control.
The test system of experiment [6] is Epidermal growth factor receptor (Homo sapiens), P00533 [UNDEFINED MUTATION]. Briefly: Binding affinity to human partial length EGFR L747-T751del/Sins mutant expressed in bacterial expression system assessed as residual binding level at 1 uM by Kinomescan method relative to control.
The test system of experiment [7] is Epidermal growth factor receptor (Homo sapiens), P00533 [L858R,T790M]. Briefly: Binding affinity to human partial length EGFR L858R/T790M double mutant (R669 to V1011 residues) expressed in mammalian expression system assessed as residual binding level at 1 uM by Kinomescan method relative to control.
Experiment [8] addresses Ephrin type-A receptor 5 (Homo sapiens) (UniProt P54756). Nature of the experiment: Binding affinity to wild-type human partial length EPHA5 (T627 to V930 residues) expressed in bacterial expression system assessed as residual binding level at 1 uM by Kinomescan method relative to control.
In experiment [9] the target is Ephrin type-B receptor 2 (Homo sapiens) (UniProt P29323). Nature of the experiment: Binding affinity to wild-type human partial length EPHB2 (I597 to L902 residues) expressed in bacterial expression system assessed as residual binding level at 1 uM by Kinomescan method relative to control.
Experiment [10] deals with Mitogen-activated protein kinase 6 (Homo sapiens) (UniProt Q16659). Nature of the experiment: Binding affinity to wild-type human partial length ERK3 (M1 to P413 residues) expressed in bacterial expression system assessed as residual binding level at 1 uM by Kinomescan method relative to control.
The target of experiment [11] is Tyrosine-protein kinase FRK (Homo sapiens) (UniProt P42685). Briefly: Binding affinity to wild-type human partial length FRK (A215 to F503 residues) expressed in bacterial expression system assessed as residual binding level at 1 uM by Kinomescan method relative to control.
Experiment [12] has as its target Hormonally up-regulated neu tumor-associated kinase (Homo sapiens) (UniProt P57058). Briefly: Binding affinity to wild-type human partial length HUNK (A31 to K354 residues) expressed in bacterial expression system assessed as residual binding level at 1 uM by Kinomescan method relative to control.
Experiment [13] deals with Insulin-like growth factor 1 receptor (Homo sapiens) (UniProt P08069). Nature of the experiment: Binding affinity to wild-type human partial length IGF1R (L972 to D1294 residues) expressed in bacterial expression system assessed as residual binding level at 1 uM by Kinomescan method relative to control.
Experiment [14] concerns the target Mitogen-activated protein kinase 9 (Homo sapiens) (UniProt P45984). Briefly: Binding affinity to wild-type human full length JNK2 (M1 to Q382 residues) expressed in mammalian expression system assessed as residual binding level at 1 uM by Kinomescan method relative to control.
In experiment [15] the test system is Mast/stem cell growth factor receptor Kit (Homo sapiens), P10721 [V559D,T670I]. Briefly: Binding affinity to human partial length KIT V559D/T670I double mutant (Y545 to D952 residues) expressed in bacterial expression system assessed as residual binding level at 1 uM by Kinomescan method relative to control.
In experiment [16] the target is MAP kinase-activated protein kinase 2 (Homo sapiens) (UniProt P49137). Briefly: Binding affinity to wild-type human partial length MAPKAPK2 (V48 to D345 residues) expressed in bacterial expression system assessed as residual binding level at 1 uM by Kinomescan method relative to control.
Experiment [17] deals with Serine/threonine-protein kinase 3 (Homo sapiens) (UniProt Q13188). Briefly: Binding affinity to wild-type human partial length MST2 (D17 to E318 residues) expressed in bacterial expression system assessed as residual binding level at 1 uM by Kinomescan method relative to control.
Experiment [18] has as its target Serine/threonine-protein kinase Nek3 (Homo sapiens) (UniProt P51956). Briefly: Binding affinity to wild-type human full length NEK3 (M1 to R506 residues) expressed in mammalian expression system assessed as residual binding level at 1 uM by Kinomescan method relative to control.
The target of experiment [19] is Cyclin-dependent kinase 18 (Homo sapiens) (UniProt Q07002). Nature of the experiment: Binding affinity to wild-type human full length PCTK3 (M3 to F474 residues) expressed in bacterial expression system assessed as residual binding level at 1 uM by Kinomescan method relative to control.
Experiment [20] addresses Phosphatidylinositol 4,5-bisphosphate 3-kinase catalytic subunit gamma isoform (Homo sapiens) (UniProt P48736). Briefly: Binding affinity to wild-type human partial length PIK3CG (S144 to A1102 residues) expressed in mammalian expression system assessed as residual binding level at 1 uM by Kinomescan method relative to control.
The target in experiment [21] is Serine/threonine-protein kinase PLK1 (Homo sapiens) (UniProt P53350). Nature of the experiment: Binding affinity to wild-type human partial length PLK1 (A33 to F325 residues) expressed in mammalian expression system assessed as residual binding level at 1 uM by Kinomescan method relative to control.
The target of experiment [22] is Rho-associated protein kinase 1 (Homo sapiens) (UniProt Q13464). Nature of the experiment: Binding affinity to wild-type human partial length ROCK1 (M1 to R415 residues) expressed in mammalian expression system assessed as residual binding level at 1 uM by Kinomescan method relative to control.
The target of experiment [23] is Ribosomal protein S6 kinase alpha-1 (Homo sapiens) (UniProt Q15418). Briefly: Binding affinity to wild-type human partial length N-terminal RSK1 Kinase domain 1 (M1 to E388 residues) expressed in bacterial expression system assessed as residual binding level at 1 uM by Kinomescan method relative to control.
The target in experiment [24] is Serine/threonine-protein kinase ULK3 (Homo sapiens) (UniProt Q6PHR2). Nature of the experiment: Binding affinity to wild-type human partial length ULK3 (M1 to Q290 residues) expressed in mammalian expression system assessed as residual binding level at 1 uM by Kinomescan method relative to control.

Experimental findings from ChEMBL document CHEMBL4330132, “5-Keto-3-cyano-2,4-diaminothiophenes as selective maternal embryonic leucine zipper kinase inhibitors” (Bioorg Med Chem Lett, 2019) are described below.

For the compound `CC(C)Nc1sc(C(=O)c2ccc(Cl)s2)c(N)c1C#N`, the Activity in experiment [1] amounted to 70%; in experiment [2], 94%; in experiment [3], 83%; in experiment [4], 100%; in experiment [5], 100%; in [6] it was 100%. The Activity in experiment [7] worked out at 83%; in [8], 100%; in experiment [9], 79%; in experiment [10] it was 100%; in experiment [11], 76%; in [12], 71%. For the same compound, the Activity is 90% in [13]; 100% in experiment [14]; 87% in experiment [15]; 83% in experiment [16]; 82% in experiment [17]; 100% in [18]. For the same compound, the Activity in [19] is 100%; in experiment [20], 100%; in experiment [21], 100%; in experiment [22], 100%; in experiment [23], 84%; in [24], 99%.
